SMILES | melting point
COc1cccc(CC(=O)O)c1OCCc1cn(-c2ccc(C(F)(F)F)cn2)nc1C(C)C | 165 to 166 °C
Cc1ccc(S(=O)(=O)OCC2CCc3ccc4[nH]c(C(F)(F)F)nc4c3O2)cc1 (configuration not stated) | 160 °C
CC(=O)n1ccc(-c2c(-c3ccncc3)c(-c3ccc(F)cc3)nn2CCO)cc1=O | 220 to 221 °C
CS(=O)c1c(C(=O)c2cnoc2C2CC2)ccc(Cl)c1Cl (configuration not stated) | 110 to 112 °C
CCCCc1nc(NC(C)=O)[nH]c(=O)c1Cc1ccc(-c2ccccc2-c2nnn[nH]2)cc1 | 205 to 208 °C
O=[N+]([O-])c1cnn2c1-c1ccccc1NC2c1ccccc1 (configuration not stated) | 157 to 158 °C
CCOC(=O)c1ccc(NCC=Cc2ccccc2)cc1 | 123 to 131 °C
CCc1c(-c2ccc(N(C)C)nn2)ssc1=S | 160 °C
CC(C)c1cc(C(C)C)c(CC(=O)NS(=O)(=O)Oc2c(C(C)C)cc(S(N)(=O)=O)cc2C(C)C)c(C(C)C)c1 | 164 to 166 °C
Cc1ccccc1-c1nn(C(C)C(=O)N(C)C)cc1Cl (configuration not stated) | 69 to 71.5 °C
O=C(O)c1cccc(COc2cccc(OCc3ccc4ccccc4n3)c2)c1 | 149 to 151 °C
COc1cc2ncnc(N3CCN(C(=O)Nc4ccc(S(C)(=O)=O)cc4)CC3)c2cc1OC | 266 to 269 °C
COc1c(N2CC[C@@H](C3(NCCO)CC3)C2)c(F)cc2c(=O)c(C(=O)O)cn([C@@H]3C[C@@H]3F)c12 | 153 to 155 °C
Cc1nc2ccc(Oc3ncccc3C(=O)NCc3ccc(C(C)(C)O)cc3)cc2s1 | 131 to 133 °C
NC(=O)C(N)c1ccc(F)cc1F (configuration not stated) | 143 °C
CN1CCN(c2c(F)c(F)c([N+](=O)[O-])c(F)c2F)CC1 | 77 to 78 °C
O=S(=O)(Nc1cc(Cl)c(Cl)cc1Cl)C(F)(F)F | 104 to 106 °C
O=C(O)C1=Cc2cc(Cl)c(Oc3ccc(F)c(F)c3)cc2OC1C(F)(F)F (configuration not stated) | 192 to 193 °C
CCCCc1nn(-c2ccc([N+](=O)[O-])cc2C(F)(F)F)c(=O)n1Cc1ccc(-c2ccccc2S(=O)(=O)NC(C)(C)C)cc1 | > 78 °C
CCCCC(=O)Nc1ncc([N+](=O)[O-])s1 | 155 to 156 °C
Cc1ccc(C(=O)COc2ccc(F)cc2)cc1 | 95 to 96 °C

SMILES | melting point
CC[C@H](C)CNC(=O)C[C@H](O)[C@H](CC(C)C)C(=O)OC(C)(C)C | 83 to 84 °C
C[C@@H]1[C@H](O)[C@@H](C)C=C(S(=O)(=O)c2ccccc2)[C@@H]2O[C@H]12 | 118 to 120 °C
CCOC(=O)Cc1ccc2c(c1)sc1cccc(Cl)c12 | 82 to 84 °C
CC(Br)c1cccc2c(-c3ccccc3)onc12 (configuration not stated) | 73 to 77 °C
Cc1nc2nc[nH]c2c2nc(-c3ccccc3)nn12 | 285 °C
CC(C)C(=O)Oc1ccc2c(c1)OCN(CCO[N+](=O)[O-])C2=O | 70 to 71 °C
CC(=O)CS(=O)(=O)C(c1ccc(Cl)cc1)c1ccc(Cl)cc1 | 114 to 115 °C
CC12CCC(=O)C=C1N(C(C)(C)C)CC1C2CCC2(CC(=O)O)C(C(=O)O)CCC12 (configuration not stated) | 215 to 216 °C
CCCCCCCCCCCCCCCCCCOc1cc(OCCCOc2ccccc2)cc(C(=O)O)c1 | 79 to 81 °C
OCCNc1ccnc2ccccc12 | 152 to 154 °C
C[C@]1(Cn2cc([N+](=O)[O-])nc2Cl)CO1 | 65.5 to 67 °C
CCCCNC(=O)C1CC2(NC(=O)NC2=O)c2cc(F)ccc2O1 (configuration not stated) | 286 to 288 °C
O=c1c2c(Cc3ccc(F)cc3)n[nH]c2c2cccnc2n1-c1cccc(OC(F)(F)F)c1 | 226 to 228 °C
CCCCC(CC)C(=O)Nc1ccc2ccn(Cc3ccc(C(=O)CS(=O)(=O)c4ccccc4)cc3OC)c2c1 (configuration not stated) | 131 to 133 °C
Cn1nc(-c2cccc(C(F)(F)F)c2)c(O)c1C(=O)O | 192 to 194 °C
O=C(O)C(=O)c1ccc(O)c(Cl)c1 | 116 to 117 °C
Cc1sc2c(c1C)C(c1ccc(Cl)cc1)=NC(CC(=O)Nc1ncccn1)c1nnc(C)n1-2 (configuration not stated) | 251 to 253 °C
CC1(C)N=C(n2nc(O)ccc2=O)c2cc(Br)ccc2O1 | 196 to 198 °C
CCOc1ccc2c(c1)C(=O)OC2C(Cl)(Cl)Cl (configuration not stated) | 112 to 114 °C
C=CCNc1nc(NNC(C)(C)C)c2scc(C)c2n1 | 105 to 107 °C
Cc1ccc2c(N3CCN(CCc4cccc(N5CCNC5=O)c4)CC3)cccc2n1 | 164 °C

The remaining lines, values ahead:

melting point | SMILES
52 to 53 °C | Cc1ccccc1C=CC(=O)OCCc1ccccc1
156 °C | CC(C)(C)NC(=O)NN1CC=CCC1
304 to 309 °C | O=C1N=C(NN2CCOCC2)SC1=Cc1cccc(-c2cc(F)c(O)c(C34CC5CC(CC(C5)C3)C4)c2)c1
142 to 144 °C | CC(C)c1ccc(C(=O)C(C)c2ccccc2)c(C(C)C)c1OS(N)(=O)=O (configuration not stated)
132 to 134 °C | CC(C)(C)OC(=O)NNc1ccc([N+](=O)[O-])cn1
> 325 °C | O=c1c2cc(O)ccc2[nH]c2c([N+](=O)[O-])ccc(Cl)c12
161 to 165 °C | CC1(C)Cc2c(c(O)cc3c2C(c2cccc(-c4ccc(NC(=O)OCc5ccccc5)cc4)c2)=NCC3(C)C)O1
114 to 115 °C | CCC1Oc2ccc(C(C)C(=O)O)cc2C(=O)C1C (configuration not stated)
232 to 233 °C | Cn1c(=O)[nH]c(=O)n(-c2ccc(Sc3nc4ccc(Cl)cc4s3)cc2)c1=O
283 to 286 °C | CN(C)CCn1c2ccc(O)cc2c2c3c(c(-c4ccccc4)cc21)C(=O)NC3=O
163 to 164 °C | COC(=O)c1ccc(CC(=O)Nc2cccc(/C=C/c3nc(C4CCC4)cs3)c2)cc1
> 320 °C | CC1CCCCN1CCC(=O)Nc1ccc2c(=O)c3ccc(NC(=O)CCN4CCCCC4C)cc3[nH]c2c1 (configuration not stated)
228 to 229 °C | O=C(O)Cc1csc(-c2cc3cccc(NS(=O)(=O)c4cccs4)c3[nH]2)n1
248 to 249 °C | NC(=O)[C@H]1NC(=O)[C@H]1NC(=O)OCc1ccccc1
59 to 61 °C | C1=COc2ccccc2O1
> 230 °C | CSc1nn2c(N)cc(C)nc2c1S(=O)(=O)c1ccc2ccccc2c1
105 to 106 °C | CCN(CC)C(=O)C1=C(C(=O)Nc2ccc(Cl)cc2F)CCCC1
> 325 °C | Cc1cc2c(cc1C)-n1c(n[nH]c1=O)C=C(c1ccc(-n3c(C)nc4cnccc43)cc1)N2
108 to 110 °C | COC(=O)c1cccc2c1Nc1cc(I)ccc1C2
> 300 °C | O=S1(=O)N=C2CCCN2c2ccc(Oc3cccc(O)c3)cc21
55 to 57 °C | O=CNC(Cl)C(Cl)(Cl)CCl (configuration not stated)
140 to 142 °C | CCOC(=O)c1cnc2n(c1=O)-c1ccccc1N(C(=O)OCC)C2
133 to 134 °C | O=C1[C@H]2CCC[C@H]2N(C(=O)CCCCCn2ccnc2)c2ccccc2N1Cc1ccccc1 (relative stereo)
83 to 85 °C | COC(=O)c1ccc(S(=O)(=O)N2CC[C@@H](Sc3cc(C(C)(C)C)c(O)c(C(C)(C)C)c3)C2)n1C
167 to 169 °C | Cc1cc(N2C(=O)c3ccccc3C2=O)c(C)cc1N
228 °C | N=c1c2sc(=S)n(-c3ccccc3)c2ncn1NC(=O)c1ccco1
83.5 to 85 °C | Cc1cc(Oc2csc(C(F)(F)F)c2)nc(-c2ccc(C(F)(F)F)cc2)n1
132 to 133 °C | CC(C)(CCCCCNS(=O)(=O)c1ccc(Cl)cc1)C(=O)O

melting point | SMILES
148 to 149 °C | Clc1ccc(-c2[nH]c3c(Cl)cc(Cl)cc3c2Cl)cc1
205 to 206 °C | NC1=C(c2cccc(C(F)(F)F)c2)C(=O)C(c2ccccc2)C1 (configuration not stated)
144 °C | CC(C)c1ccc(S(=O)(=O)n2c(CCCC(=O)O)cc3nc(C(F)(F)F)ccc32)cc1
125 to 128 °C | CCOC(=O)c1cnc2c(SC(=O)N(C)C)nccn2c1=O
227 to 228 °C | CNC(=O)Nc1snc(S(C)(=O)=O)c1C(N)=O
147 to 152 °C | O=C(Nc1cccc(-n2nc(C(F)(F)F)cc2C(F)(F)F)c1)c1cc([N+](=O)[O-])ccc1Cl
145 to 146 °C | O=[N+]([O-])C=C(NCCO)NCCO
87 to 90 °C | COc1cccc(C(Cn2ccnc2)=[N+](C)[O-])c1
107 °C | O=C(CCCCCNC(=O)CCc1ccccc1)NO
242 °C | COc1ccc(/C=C/c2nc3c([nH]2)c(=O)n(C)c(=O)n3C)c(Cl)c1OC
91 to 92 °C | C=CCOc1cc(C=CNC(=O)OC)ccc1OCC(O)CNC(C)C (configuration not stated)
167 to 168 °C | Cc1ccc2oc(-c3ccccc3-c3nnn[nH]3)c(Br)c2c1
122 to 123 °C | C=CCOc1cccc2oc(C(=O)OCC)cc(=O)c12
111 to 112 °C | O=C(CCC1CCN(Cc2cccc(F)c2)CC1)c1cc2c3c(c1)CCN3C(=O)CC2
248 to 250 °C | O=c1[nH]c(=Cc2ccc(OCc3ccccc3)cn2)c(=O)[nH]c1=Cc1ccccn1
177 to 178 °C | O=C(Oc1ccc(Cl)c2c(=O)c3ccccc3sc12)c1ccccc1
162 to 163 °C | CC1=CC(OC(=O)c2ccc(N(C)C)cc2)C(O)C(C)(C)CC1=O (configuration not stated)
204 to 205 °C | Cc1oc(-c2ccccc2)nc1CCOc1ccc(C=CC=C2OC(=O)NC2=O)cn1
153 to 156 °C | O=C(NCCCCCCC(=O)c1ncco1)c1cc2ccccc2[nH]1
182 to 184 °C | O=S(=O)(c1ccc(-c2ccc3cnc(Nc4ccc(N5CCOCC5)cc4)nn23)cc1)N1CCCC1
144 to 146 °C | COc1ccc(C(F)(F)F)cc1Nc1cccn2nc(Cl)nc12
138 to 141 °C | CCCCc1nn2c(C)c(C)nc2n1Cc1ccc(-c2ccccc2-c2nnn[nH]2)cc1
208 to 209 °C | Cn1c2cccc(Br)c2c2nc3ccccc3nc21
208 to 210 °C | CC(C)(C)OC(=O)CN1CC(c2ccc3ccccc3c2)SCC(N2C(=O)c3ccccc3C2=O)C1=O (configuration not stated)
190 to 191 °C | O=C(CCl)Nc1ccc2c(c1NC(=O)c1cccs1)C(=O)c1ccccc1C2=O
> 260 °C | Oc1ccc(Nc2n[nH]c3ncnc(Nc4cccc(Cl)c4)c23)cc1
229 to 231 °C | COc1cccc2c1nc(C(F)F)n2-c1nc(NC2CCN(C(=O)OC(C)(C)C)CC2)c([N+](=O)[O-])c(N2CCOCC2)n1
